Laboratory results reported in US20160047748A1, “FLUORESCENT PROBE” (THE UNIVERSITY OF TOKYO, priority 2013, published 2016).

Experiments:
HeLa cells [1] = test: Ca^2+-imaging of living cells; type: cell-based
Experimental: Ca^2+-imaging of living cells was carried out using CaTM-3-AM. In order to study the utility thereof, a comparison was made with CaTM-2-AM(N-[2-[(acetyloxy)]-2-oxoethyl]amino]-N-[2-[2-[2-[bis[2-[(acetyloxy)methoxy]-2-oxoethyl]amino]-5-[[4-(1,8-dichloro-2,9-dihydro-7-hydroxy-9,9-dimethyl-2-oxo-9-silaanthracen-10-yl)-3-methylbenzoyl]amino]phenoxy]ethoxy]phenyl]-glycine(acetyloxy)methyl ester), which has a methyl group at position 2 of the benzene ring instead of a carboxy group. HeLa cells were incubated for 30 minutes at 37° C. together with 3 μM of CaTM-2-AM or CaTM-3-AM in a Hank's balanced salt solution (HBSS) containing 0.03% DMSO. The cells were washed three times using HBSS, then HBSS was added and the cells were observed using a confocal microscope SP5 (Leica) with an excitation wavelength of 590 nm and a fluorescence wavelength of 610 to 680 nm.
Ca^2+ imaging was carried out during stimulation by histamine and ionomycin using cells to which CaTM-3-AM had been added. Histamine hydrochloride (1 μM) was added after 1 minute from the beginning of observation, and ionomycin (5 μM) was added after 4 minutes from the beginning of observation.

physchem = type: physicochemical
Experimental: (§1) The optical characteristics, absorbance spectra, and fluorescence spectra of the resulting ZnTM-1 depending on pHs are shown in FIG. 1. The pH-induced changes were measured using ZnTM-1 (1 μM) in a buffer of 0.1M sodium phosphate containing 15% DMSO. pKa was determined by biphasic fitting using the absorbance at the absorbance maximum wavelength. EDTA (100 μM) was added in order to eliminate the effect of trace metal ions during the measurement of quantum yield when Zn^2+ had not been added, and then measurement was carried out.

[2] = Optical characteristics, Zn^2+ addition experiment; type: physicochemical; details: for Φf1: fluorescence quantum yield
Experimental: as §1, with “Zn^2+ addition experiment was carried out by adding ZnSO4 to a solution obtained by adding” for “pH-induced changes were measured using”, “HEPES (pH 7.4)” for “sodium phosphate”

HeLa cells [3] = test: Cell imaging using ZnTM-1; type: cell-based; details: 10 μM, 30 min at 37° C., HBSS 1% DMSO, ZnSO4 (50 μM)/pyrithione (5 μM), then TPEN (100 μM)
Experimental: Cell imaging was carried out using ZnTM-1. HeLa cells were incubated for 30 minutes at 37° C. together with 10 μM of ZnTM-1 in a Hank's balanced salt solution (HBSS) containing 1% DMSO. The mixture was washed once using HBSS, then HBSS was added and the cells were observed using an epifluorescence microscope IX-71 (Olympus) with an excitation wavelength of 565 to 585 nm and a fluorescence wavelength of 600 to 690 nm. The observation was carried out in every 30 seconds, ZnSO4 (50 μM) and pyrithione (5 μM), which is an ionophore, were added after 2 minutes and 30 seconds from the beginning of observation, and TPEN (100 μM), which is a cell-membrane-permeating zinc chelator, was added after 6 minutes from the beginning of observation.

[4] = ZnTM-1 1 μM, 0.1M HEPES (pH 7.4) containing 15% DMSO, Zn^2+ not added

SMILES	Brightness of fluorescence image (HeLa cells [1]; HeLa cells, 3 μM, 30 min at 37° C., HBSS 0.03% DMSO, excitation 590 nm, fluorescence 610 to 680 nm)	Quantity of fluorescent probe taken into cells (HeLa cells [1]; HeLa cells, 3 μM, 30 min at 37° C., compared with CaTM-2-AM)	Detection of variation in intracellular Ca^2+ during stimulation (HeLa cells [1]; histamine hydrochloride (1 μM) after 1 minute, ionomycin (5 μM) after 4 minutes)	pKa (physchem)	λabs (nm) [2, 4] [nm]	λf1 (nm) [2, 4] [nm]	Φf1 ([2]; + 10 eq Zn^2+ (ZnSO4), 0.1M HEPES (pH 7.4) containing 15% DMSO)	Φf1 ([2]; Zn^2+ not added, EDTA (100 μM) added)	Cell uptake and function as Zn^2+-detecting fluorescent probe (HeLa cells [3])
CC(=O)OCOC(=O)CN(CC(=O)OCOC(C)=O)c1ccccc1OCCOc1cc(NC(=O)c2ccc(C3=C4C=CC(=O)C(Cl)=C4[Si](C)(C)c4c3ccc(O)c4Cl)c(C(=O)O)c2)ccc1N(CC(=O)OCOC(C)=O)CC(=O)OCOC(C)=O [CaTM-3-AM, 5-[[[4-[bis[2-[(acetyloxy)methoxy]-2-oxoethyl]amino]-5-[2-[2-[bis[2-[(acetyloxy)methoxy]-2-oxoethyl]amino]phenoxy]ethoxy]-phenyl]amino]carbonyl]-2-(1,8-dichloro-2,9-dihydro-7-hydroxy-9,9-dimethyl-2-oxo-9-silaanthracen-10-yl)-benzoic acid]	brighter fluorescence image than does CaTM-2-AM	a larger quantity of fluorescent probes is taken into cells	can be accurately ascertained	–	–	–	–	–	–
C[Si]1(C)C2=C(F)C(=O)C=CC2=C(c2ccc(C(=O)Nc3ccc(NCCN(Cc4ccccn4)Cc4ccccn4)cc3)cc2C(=O)O)c2ccc(O)c(F)c21 [ZnTM-1, 5-[[[4-[[2-[bis(2-pyridinylmethyl)amino]ethyl]amino]phenyl]amino]carbonyl]-2-(1,8-difluoro-2,9-dihydro-7-hydroxy-9,9-dimethyl-2-oxo-9-silaanthracen-10-yl)benzoic acid]	–	–	–	7.2	589	601	0.281	0.062	is taken into the cell and functions effectively as a Zn^2+-detecting fluorescent probe
